Literature values, collected in US8921533B2, “Glycosylated valproic acid analogs and uses thereof” (Chromatin Technologies, priority 2011, dated 2014).
Read-outs that look alike come from different tables or passages of the source.

Test system: sensitised guinea pig tracheal rings
Conditions: also contraction induced by histamine, 5-hydroxytryptamine and carbachol

In the case of CCCC(CCC)C(=O)[O-].[Na+] [sodium valproate], the “inhibition of antigen-induced contraction of tracheal rings” value (100 microM) is listed as “weak inhibitors”.
In the case of CCCC(=O)[O-].[Na+] [sodium butyrate], the “inhibition of antigen-induced contraction of tracheal rings” value (1 mM) is listed as “weak inhibitors”.
